Measurements taken from US8435939B2, “Polypeptide anti-HIV agent containing the same” (priority 2000, dated 2013).
Where a SMILES comes first, the peptide text is derived from it. Bridges are numbered along the chain shown (N, C = ends). [ ]: non-standard residue; d: D form. 2Nal = N[C@@H](Cc1ccc2ccccc2c1)C(=O)O; Cit = NC(=O)NCCC[C@H](N)C(=O)O

How the values were obtained:
Assay type in all cases: cell-based
[1] = tested on: virus-uninfected MT-4 cells; test: Cytotoxicity Test I: virus-uninfected MT-4 cells, MTT method; settings: for SI: CC50 (Test I)/EC50: selective index, MT-4 CC50 over anti-HIV EC50; for cytotoxicity in words, compared with conventional T134/T140: conclusion drawn from Table 3
Description: (§1) HIV-1 (IIIB) strain obtained from MOLT/HIV-1 (IIIB) cell previously infected by HIV-1 was used. The polypeptide of the present invention was added to MT-4 CD4^+ T cells infected by HIV in various kinds of concentrations, and a number of living cells after culturing at 37° C. for 5 days was determined by using a 3′-(4,5-dimethylthiazol-2-yl)-2,5-diphenyltetrazolinium bromide (MTT) method. Anti-HIV activity is shown by a concentration (EC50 value), where MT-4 cell death by HIV infection is inhibited by 50%. Cytotoxicity of the peptide according to the present invention was shown by a 50% survival concentration (Test I: CC50 value) by culturing virus-uninfected MT-4 cells with the polypeptide according to the present invention in various concentrations, and determining a number of living cells by the MTT method. Moreover, a number of living cells of human peripheral blood mononuclear cells (monocyte) (PBMC) was determined by trypan blue dyeing method, and shown by a 50% survival concentration (Test II: CC50 value). Respective ratios of the CC50 value and the EC50 value were shown as a selective index (SI). Obtained values were summarized in Table 3 using the conventionally known polypeptides T134 and T140, and an anti-HIV compound: 3′-azido-2′,3′-dideoxythymidine (AZT) used as a medicine as a control anti-HIV agent.

[2] = as above; settings: virus-uninfected MT-4 cells, MTT method, read-out: CC50 (Test I), 50% survival concentration
Description: as §1

[3] = Cytotoxicity Test II: human PBMC, trypan blue dyeing method; settings: human PBMC, trypan blue dyeing method; read-out: CC50 (Test II), 50% survival concentration
[4] = tested on: human peripheral blood mononuclear cells (PBMC); test: as above; settings: selective index, PBMC CC50 over anti-HIV EC50
HIV-1 (IIIB) strain = test: Anti-HIV activity: inhibition of MT-4 cell death by HIV infection (MTT method); settings: for EC50: MT-4 CD4+ T cells infected by HIV-1 (IIIB), 37° C., 5 days, MTT, average of at least three measurements, read-out: EC50 (concentration where MT-4 cell death by HIV infection is inhibited by 50%)
Description: as §1

[5] = human, MT-4 cells (virus-uninfected)

In the case of NCCCC[C@@H]1NC(=O)[C@H](CCCN=C(N)N)NC(=O)[C@H](Cc2ccc(O)cc2)NC(=O)[C@@H](NC(=O)[C@H](Cc2c[nH]c3ccccc23)NC(=O)[C@H](CCCN=C(N)N)NC(=O)[C@@H](N)CCCN=C(N)N)CSSC[C@@H](C(=O)N[C@@H](CCCN=C(N)N)C(=O)O)NC(=O)[C@H](CCCNC(N)=O)NC(=O)[C@H](CCCN=C(N)N)NC(=O)[C@H](Cc2ccc(O)cc2)NC(=O)[C@@H]2CCCN2C(=O)[C@@H](CCCCN)NC1=O [Compound T134, H-Arg-Arg-Trp-Cys-Tyr-Arg-Lys-DLys-Pro-Tyr-Arg-Cit-Cys-Arg-OH, reference compound] (H-RRWCYRK[dK]PYR[Cit]CR-OH; disulfide 4-13), the “SI: CC50 (Test I)/EC50” value [1] is reported as >>120, the CC50 [2, 5] is reported as > 1 µM and the CC50 [3] is reported as 190 µM. The “SI: CC50 (Test II)/EC50” value [4] was 23000.

For C[C@H](N)C(=O)N[C@@H](CCCNC(=N)N)C(=O)N[C@@H](Cc1ccc2ccccc2c1)C(=O)N[C@H]1CSSC[C@@H](C(=O)N[C@@H](CCCNC(=N)N)C(=O)O)NC(=O)[C@H](CCCNC(N)=O)NC(=O)[C@H](CCCNC(=N)N)NC(=O)[C@H](Cc2ccc(O)cc2)NC(=O)[C@@H]2CCCN2C(=O)[C@@H](CCCCN)NC(=O)[C@H](CCCCN)NC(=O)[C@H](CCCNC(=N)N)NC(=O)[C@H](Cc2ccc(O)cc2)NC1=O [TA14001, H-Arg-Arg-Nal-Cys-Tyr-Arg-Lys-DLys-Pro-Tyr-Arg-Cit-Cys-Arg-OH] (H-AR[2Nal]CYRK[dK]PYR[Cit]CR-OH; disulfide 4-13), the “SI: CC50 (Test I)/EC50” value [1] was >750, the CC50 [2, 5] was > 40 µM and the EC50 (HIV-1 (IIIB) strain) was 56 nM.

For C[C@@H]1NC(=O)[C@@H](CCCCN)NC(=O)[C@H](CCCCN)NC(=O)[C@H](CCCN=C(N)N)NC(=O)[C@H](Cc2ccc(O)cc2)NC(=O)[C@@H](NC(=O)[C@H](Cc2ccc3ccccc3c2)NC(=O)[C@H](CCCN=C(N)N)NC(=O)[C@@H](N)CCCN=C(N)N)CSSC[C@@H](C(=O)N[C@@H](CCCN=C(N)N)C(=O)O)NC(=O)[C@H](CCCNC(N)=O)NC(=O)[C@H](CCCN=C(N)N)NC(=O)[C@H](Cc2ccc(O)cc2)NC1=O [TA14008, H-Arg-Arg-Nal-Cys-Tyr-Arg-Lys-DLys-Ala-Tyr-Arg-Cit-Cys-Arg-OH] (H-RR[2Nal]CYRK[dK]AYR[Cit]CR-OH; disulfide 4-13), the “SI: CC50 (Test I)/EC50” value [1] was >4700 and the CC50 [2] was > 80 µM.

With C[C@@H]1NC(=O)[C@@H]2CCCN2C(=O)[C@@H](CCCCN)NC(=O)[C@H](CCCCN)NC(=O)[C@H](CCCN=C(N)N)NC(=O)[C@H](Cc2ccc(O)cc2)NC(=O)[C@@H](NC(=O)[C@H](Cc2ccc3ccccc3c2)NC(=O)[C@H](CCCN=C(N)N)NC(=O)[C@@H](N)CCCN=C(N)N)CSSC[C@@H](C(=O)N[C@@H](CCCN=C(N)N)C(=O)O)NC(=O)[C@H](CCCNC(N)=O)NC(=O)[C@H](CCCN=C(N)N)NC1=O [TA14009, H-Arg-Arg-Nal-Cys-Tyr-Arg-Lys-DLys-Pro-Ala-Arg-Cit-Cys-Arg-OH] (H-RR[2Nal]CYRK[dK]PAR[Cit]CR-OH; disulfide 4-13) the “SI: CC50 (Test I)/EC50” value [1] was >4500 and the CC50 [2, 5] was > 80 µM.

For C[C@@H]1NC(=O)[C@H](Cc2ccc(O)cc2)NC(=O)[C@@H]2CCCN2C(=O)[C@@H](CCCCN)NC(=O)[C@H](CCCCN)NC(=O)[C@H](CCCNC(=N)N)NC(=O)[C@H](Cc2ccc(O)cc2)NC(=O)[C@@H](NC(=O)[C@H](Cc2ccc3ccccc3c2)NC(=O)[C@H](CCCNC(=N)N)NC(=O)[C@@H](N)CCCNC(=N)N)CSSC[C@@H](C(=O)N[C@@H](CCCNC(=N)N)C(=O)O)NC(=O)[C@H](CCCNC(N)=O)NC1=O [TA14010, H-Arg-Arg-Nal-Cys-Tyr-Arg-Lys-DLys-Pro-Tyr-Ala-Cit-Cys-Arg-OH] (H-RR[2Nal]CYRK[dK]PYA[Cit]CR-OH; disulfide 4-13), the “SI: CC50 (Test I)/EC50” value [1] was >4800, the CC50 [2, 5] was > 80 µM and the EC50 (HIV-1 (IIIB) strain) was 18 nM.

In the case of NCCCC[C@@H]1NC(=O)[C@H](CCCNC(N)=O)NC(=O)[C@H](Cc2ccc(O)cc2)NC(=O)[C@@H](NC(=O)[C@H](Cc2ccc3ccccc3c2)NC(=O)[C@H](CCCN=C(N)N)NC(=O)[C@@H](N)CCCN=C(N)N)CSSC[C@@H](C(=O)N[C@@H](CCCN=C(N)N)C(=O)O)NC(=O)[C@H](CCCNC(N)=O)NC(=O)[C@H](CCCN=C(N)N)NC(=O)[C@H](Cc2ccc(O)cc2)NC(=O)[C@@H]2CCCN2C(=O)[C@@H](CCCCN)NC1=O [TC14003, H-Arg-Arg-Nal-Cys-Tyr-Cit-Lys-DLys-Pro-Tyr-Arg-Cit-Cys-Arg-OH] (H-RR[2Nal]CY[Cit]K[dK]PYR[Cit]CR-OH; disulfide 4-13), the “cytotoxicity in words, compared with conventional T134/T140” value [1] is reported as “cytotoxicity is markedly lowered”, the “SI: CC50 (Test I)/EC50” value [1] is reported as >29000 and the CC50 [2, 5] is reported as > 80 µM. The CC50 [3] was 310 µM and the “SI: CC50 (Test II)/EC50” value [4] was 160000.

For N=C(N)NCCC[C@H](NC(=O)[C@@H]1CSSC[C@H](NC(=O)[C@H](Cc2ccc3ccccc3c2)NC(=O)[C@H](CCCNC(=N)N)NC(=O)[C@@H](N)CCCNC(=N)N)C(=O)N[C@@H](Cc2ccc(O)cc2)C(=O)N[C@@H](CCCNC(N)=O)C(=O)N[C@@H](CCCCN)C(=O)N[C@H](CCCNC(N)=O)C(=O)N2CCC[C@H]2C(=O)N[C@@H](Cc2ccc(O)cc2)C(=O)N[C@@H](CCCNC(=N)N)C(=O)N[C@@H](CCCNC(N)=O)C(=O)N1)C(=O)O [TC14011, H-Arg-Arg-Nal-Cys-Tyr-Cit-Lys-DCit-Pro-Tyr-Arg-Cit-Cys-Arg-OH], the “cytotoxicity in words, compared with conventional T134/T140” value [1] was “lowered cytotoxicity”, the “SI: CC50 (Test I)/EC50” value [1] was >200000 and the CC50 [2, 5] was > 100 µM. It also gave an EC50 (HIV-1 (IIIB) strain) of 0.5 nM.

For N=C(N)NCCC[C@H](NC(=O)[C@@H]1CSSC[C@H](NC(=O)[C@H](Cc2ccc3ccccc3c2)NC(=O)[C@H](CCCNC(=N)N)NC(=O)[C@@H](N)CCCNC(=N)N)C(=O)N[C@@H](Cc2ccc(O)cc2)C(=O)N[C@@H](CCCNC(N)=O)C(=O)N[C@@H](CCCCN)C(=O)N[C@H](CCCNC(N)=O)C(=O)N2CCC[C@H]2C(=O)N[C@@H](Cc2ccc(O)cc2)C(=O)N[C@@H](CCCNC(=N)N)C(=O)N[C@@H](CCCNC(N)=O)C(=O)N1)C(N)=O [TC14012, H-Arg-Arg-NaI-Cys-Tyr-Cit-Lys-DCit-Pro-Tyr-Arg-Cit-Cys-Arg-NH2], the “cytotoxicity in words, compared with conventional T134/T140” value [1] was “lowered cytotoxicity”, the “SI: CC50 (Test I)/EC50” value [1] was >250000 and the CC50 [2, 5] was > 100 µM. The EC50 (HIV-1 (IIIB) strain) was 0.4 nM and the “anti-HIV activity in words, compared with T140” value (HIV-1 (IIIB) strain; conclusion drawn from Table 3) was “higher anti-HIV activity”.

With N=C(N)NCCC[C@H](NC(=O)[C@@H]1CSSC[C@H](NC(=O)[C@H](Cc2ccc3ccccc3c2)NC(=O)[C@H](CCCNC(=N)N)NC(=O)[C@@H](N)CCCNC(N)=O)C(=O)N[C@@H](Cc2ccc(O)cc2)C(=O)N[C@@H](CCCNC(=N)N)C(=O)N[C@@H](CCCCN)C(=O)N[C@H](CCCNC(N)=O)C(=O)N2CCC[C@H]2C(=O)N[C@@H](Cc2ccc(O)cc2)C(=O)N[C@@H](CCCNC(=N)N)C(=O)N[C@@H](CCCNC(N)=O)C(=O)N1)C(N)=O [TC14018, H-Cit-Arg-Nal-Cys-Tyr-Arg-Lys-DCit-Pro-Tyr-Arg-Cit-Cys-Arg-NH2] the “cytotoxicity in words, compared with conventional T134/T140” value [1] was “lowered cytotoxicity”, the “SI: CC50 (Test I)/EC50” value [1] was >83000 and the CC50 [2, 5] was > 100 µM. For the same compound, the EC50 (HIV-1 (IIIB) strain) was 1.2 nM.

In the case of N=C(N)NCCC[C@H](NC(=O)[C@@H]1CSSC[C@H](NC(=O)[C@H](Cc2ccc3ccccc3c2)NC(=O)[C@H](CCCNC(=N)N)NC(=O)[C@@H](N)CCCNC(=N)N)C(=O)N[C@@H](Cc2ccc(O)cc2)C(=O)N[C@@H](CCCNC(N)=O)C(=O)N[C@@H](CCCCN)C(=O)N[C@H](CCCCN)C(=O)N2CCC[C@H]2C(=O)N[C@@H](Cc2ccc(O)cc2)C(=O)N[C@@H](CCCNC(=N)N)C(=O)N[C@@H](CCCNC(N)=O)C(=O)N1)C(N)=O [TN14003, H-Arg-Arg-Nal-Cys-Tyr-Cit-Lys-DLys-Pro-Tyr-Arg-Cit-Cys-Arg-NH2] (H-RR[2Nal]CY[Cit]K[dK]PYR[Cit]CR-NH2; disulfide 4-13 (inferred)), the “cytotoxicity in words, compared with conventional T134/T140” value [1] is reported as “lowered cytotoxicity”, the “SI: CC50 (Test I)/EC50” value [1] is reported as >166000 and the CC50 [2, 5] is reported as > 100 µM. For the same compound, the EC50 (HIV-1 (IIIB) strain) was 0.6 nM.

For N=C(N)NCCC[C@H](NC(=O)[C@@H]1CSSC[C@H](NC(=O)[C@H](Cc2ccc3ccccc3c2)NC(=O)[C@H](CCCNC(=N)N)NC(=O)[C@@H](N)CCCNC(=N)N)C(=O)N[C@@H](Cc2ccc(O)cc2)C(=O)N[C@@H](CCCNC(=N)N)C(=O)N[C@@H](CCCCN)C(=O)N[C@H](CCCNC(N)=O)C(=O)N2CCC[C@H]2C(=O)N[C@@H](Cc2ccc(O)cc2)C(=O)N[C@@H](CCCNC(=N)N)C(=O)N[C@@H](CCCNC(N)=O)C(=O)N1)C(N)=O [TN14005, H-Arg-Arg-Nal-Cys-Tyr-Arg-Lys-DCit-Pro-Tyr-Arg-Cit-Cys-Arg-NH2], the “cytotoxicity in words, compared with conventional T134/T140” value [1] was “cytotoxicity is markedly lowered”, the “SI: CC50 (Test I)/EC50” value [1] was >21000 and the CC50 [2, 5] was > 100 µM. The EC50 (HIV-1 (IIIB) strain) was 4.6 nM.
